According to the kinase profiling compilation of Christmann-Franck et al. (2016):

Legend:
Assay in all cases: radiometric filter-binding kinase assay
[1] = target: INSRR (human) (UniProt P14616)
[2] = test system: AKT2 (human), P31751 [S474D]
[3] = target: CDK2 CCNA2 (human) (UniProt P20248+P24941)
[4] = target: MAPK15 (human) (UniProt Q8TD08)
[5] = target: FLT1 (human) (UniProt P17948)
[6] = target: SYK (human) (UniProt P43405)
[7] = target: NEK6 (human) (UniProt Q9HC98)
[8] = target: CSK (human) (UniProt P41240)
[9] = target: MAPK1 (human) (UniProt P28482)
[10] = target: MKNK2 (human) (UniProt Q9HBH9)
[11] = target: IKBKE (human) (UniProt Q14164)
[12] = target: TTK (human) (UniProt P33981)
TTK (human), sequence (P33981 whole entry, looked up): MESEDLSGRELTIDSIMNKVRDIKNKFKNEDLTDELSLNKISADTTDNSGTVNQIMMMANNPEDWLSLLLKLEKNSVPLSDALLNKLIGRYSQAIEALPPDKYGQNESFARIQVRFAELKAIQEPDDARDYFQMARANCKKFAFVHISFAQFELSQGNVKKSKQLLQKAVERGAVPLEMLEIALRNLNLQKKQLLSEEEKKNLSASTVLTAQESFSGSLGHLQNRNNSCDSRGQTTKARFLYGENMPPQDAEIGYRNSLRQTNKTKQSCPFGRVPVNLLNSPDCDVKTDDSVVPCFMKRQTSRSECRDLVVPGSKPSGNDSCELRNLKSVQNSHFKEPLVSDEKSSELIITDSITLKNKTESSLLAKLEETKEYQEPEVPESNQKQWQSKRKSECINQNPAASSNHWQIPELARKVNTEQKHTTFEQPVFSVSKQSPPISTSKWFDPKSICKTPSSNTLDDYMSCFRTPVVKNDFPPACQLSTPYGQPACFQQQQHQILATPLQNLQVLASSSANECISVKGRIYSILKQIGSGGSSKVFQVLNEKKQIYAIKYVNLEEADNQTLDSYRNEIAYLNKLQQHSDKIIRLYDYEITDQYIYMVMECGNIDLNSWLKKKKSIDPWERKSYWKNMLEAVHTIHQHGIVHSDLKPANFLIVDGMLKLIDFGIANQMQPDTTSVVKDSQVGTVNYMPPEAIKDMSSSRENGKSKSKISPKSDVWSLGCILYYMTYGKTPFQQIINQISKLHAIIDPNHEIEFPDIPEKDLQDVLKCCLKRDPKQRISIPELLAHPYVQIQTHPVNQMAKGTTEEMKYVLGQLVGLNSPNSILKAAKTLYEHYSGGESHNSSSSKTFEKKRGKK

[13] = target: RIPK2 (human) (UniProt O43353)
[14] = target: EPHB1 (human) (UniProt P54762)
[15] = target: EPHB4 (human) (UniProt P54760)
[16] = target: MAP2K1 (human) (UniProt Q02750)
MAP2K1 (human), sequence (Q02750 whole entry, looked up): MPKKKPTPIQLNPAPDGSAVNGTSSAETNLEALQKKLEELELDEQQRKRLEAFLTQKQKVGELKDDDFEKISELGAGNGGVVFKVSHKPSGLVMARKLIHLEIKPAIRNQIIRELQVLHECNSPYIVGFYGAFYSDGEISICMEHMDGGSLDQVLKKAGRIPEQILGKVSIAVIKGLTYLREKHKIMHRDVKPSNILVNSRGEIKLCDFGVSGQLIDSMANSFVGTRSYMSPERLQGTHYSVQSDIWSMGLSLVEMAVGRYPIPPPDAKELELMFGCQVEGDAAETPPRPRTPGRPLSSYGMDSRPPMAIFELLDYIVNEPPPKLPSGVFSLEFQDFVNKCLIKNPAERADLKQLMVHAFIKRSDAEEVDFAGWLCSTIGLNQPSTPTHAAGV

[17] = target: RPS6KA3 KD1 KD2 (human) (UniProt P51812)
[18] = target: CHEK2 (human) (UniProt O96017)
[19] = target: NEK2 (human) (UniProt P51955)
[20] = target: PAK7 (human) (UniProt Q9P286)
[21] = target: PLK1 (human) (UniProt P53350)
PLK1 (human), sequence (P53350 whole entry, looked up): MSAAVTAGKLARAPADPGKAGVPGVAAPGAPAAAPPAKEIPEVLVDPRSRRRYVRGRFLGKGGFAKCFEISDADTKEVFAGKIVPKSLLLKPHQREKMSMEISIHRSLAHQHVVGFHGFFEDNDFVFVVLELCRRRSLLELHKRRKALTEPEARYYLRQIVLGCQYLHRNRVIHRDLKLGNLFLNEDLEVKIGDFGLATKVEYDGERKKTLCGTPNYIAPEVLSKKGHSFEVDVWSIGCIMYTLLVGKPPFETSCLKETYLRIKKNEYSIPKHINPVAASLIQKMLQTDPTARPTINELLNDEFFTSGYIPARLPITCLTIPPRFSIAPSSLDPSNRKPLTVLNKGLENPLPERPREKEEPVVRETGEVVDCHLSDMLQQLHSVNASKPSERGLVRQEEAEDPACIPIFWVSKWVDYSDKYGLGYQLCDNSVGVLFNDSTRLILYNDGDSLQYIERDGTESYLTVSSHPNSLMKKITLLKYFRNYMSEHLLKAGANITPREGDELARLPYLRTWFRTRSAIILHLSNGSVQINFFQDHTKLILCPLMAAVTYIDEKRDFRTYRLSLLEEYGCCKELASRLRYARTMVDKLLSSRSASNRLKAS

[22] = target: EPHA4 (human) (UniProt P54764)
[23] = test system: RPS6KB1 (human), P23443 [T412E]
RPS6KB1 (human), P23443 [T412E], sequence (P23443 whole entry T412E, looked up): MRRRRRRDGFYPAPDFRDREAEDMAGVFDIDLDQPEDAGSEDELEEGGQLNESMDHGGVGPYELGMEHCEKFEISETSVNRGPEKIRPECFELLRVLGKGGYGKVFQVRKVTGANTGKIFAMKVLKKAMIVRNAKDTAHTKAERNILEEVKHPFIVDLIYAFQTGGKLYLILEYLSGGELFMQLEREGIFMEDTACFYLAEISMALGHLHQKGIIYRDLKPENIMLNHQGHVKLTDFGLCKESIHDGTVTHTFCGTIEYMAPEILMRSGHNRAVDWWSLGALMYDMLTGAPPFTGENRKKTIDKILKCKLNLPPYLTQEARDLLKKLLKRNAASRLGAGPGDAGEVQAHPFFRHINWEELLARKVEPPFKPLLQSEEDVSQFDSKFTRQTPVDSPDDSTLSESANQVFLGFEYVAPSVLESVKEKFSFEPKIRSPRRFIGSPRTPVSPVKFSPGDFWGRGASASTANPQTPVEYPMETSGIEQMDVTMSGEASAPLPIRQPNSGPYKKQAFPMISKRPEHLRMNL

[24] = target: BTK (human) (UniProt Q06187)
[25] = target: PRKACA (human) (UniProt P17612)
[26] = target: RPS6KA1 KD1 KD2 (human) (UniProt Q15418)
RPS6KA1 KD1 KD2 (human), sequence (Q15418 whole entry, looked up): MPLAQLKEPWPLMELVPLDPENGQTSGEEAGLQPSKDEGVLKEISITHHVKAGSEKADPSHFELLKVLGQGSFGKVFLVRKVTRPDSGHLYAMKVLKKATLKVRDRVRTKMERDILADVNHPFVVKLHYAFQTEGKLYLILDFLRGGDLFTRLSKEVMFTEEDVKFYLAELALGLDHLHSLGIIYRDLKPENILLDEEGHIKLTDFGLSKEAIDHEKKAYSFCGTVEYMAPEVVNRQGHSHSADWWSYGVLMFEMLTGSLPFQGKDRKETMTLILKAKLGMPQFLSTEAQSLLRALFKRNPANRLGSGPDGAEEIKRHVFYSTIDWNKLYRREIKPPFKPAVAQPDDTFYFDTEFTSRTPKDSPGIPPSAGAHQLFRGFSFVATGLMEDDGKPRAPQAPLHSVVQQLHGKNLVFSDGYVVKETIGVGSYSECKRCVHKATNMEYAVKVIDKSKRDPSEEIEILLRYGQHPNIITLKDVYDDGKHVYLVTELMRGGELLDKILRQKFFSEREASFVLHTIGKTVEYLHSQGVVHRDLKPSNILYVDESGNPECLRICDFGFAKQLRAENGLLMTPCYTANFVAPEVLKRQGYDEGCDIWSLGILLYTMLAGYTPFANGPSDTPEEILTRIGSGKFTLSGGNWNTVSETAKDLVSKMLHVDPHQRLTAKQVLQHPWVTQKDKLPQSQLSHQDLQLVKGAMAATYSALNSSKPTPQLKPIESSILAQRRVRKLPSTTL

[27] = target: IKBKB (human) (UniProt O14920)
[28] = target: SRC (human) (UniProt P12931)
[29] = target: MAPKAPK3 (human) (UniProt Q16644)
MAPKAPK3 (human), sequence (Q16644 whole entry, looked up): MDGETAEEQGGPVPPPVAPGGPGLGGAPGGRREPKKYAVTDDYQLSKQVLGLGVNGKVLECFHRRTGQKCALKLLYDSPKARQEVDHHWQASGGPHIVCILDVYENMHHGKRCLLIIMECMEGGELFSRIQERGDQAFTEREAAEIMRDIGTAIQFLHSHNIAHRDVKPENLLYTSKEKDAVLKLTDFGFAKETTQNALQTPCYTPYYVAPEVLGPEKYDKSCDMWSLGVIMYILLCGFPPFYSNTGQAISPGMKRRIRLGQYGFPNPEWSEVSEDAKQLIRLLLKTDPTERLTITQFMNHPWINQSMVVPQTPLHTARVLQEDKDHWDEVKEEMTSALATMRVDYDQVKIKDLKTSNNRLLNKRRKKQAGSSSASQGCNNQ

[30] = test system: PRKAA1 or PRKAA2 (rat); conditions: accession and sequence are those of the human protein
[31] = target: MAPK3 (human) (UniProt P27361)
[32] = target: PIM2 (human) (UniProt Q9P1W9)
PIM2 (human), sequence (Q9P1W9 whole entry, looked up): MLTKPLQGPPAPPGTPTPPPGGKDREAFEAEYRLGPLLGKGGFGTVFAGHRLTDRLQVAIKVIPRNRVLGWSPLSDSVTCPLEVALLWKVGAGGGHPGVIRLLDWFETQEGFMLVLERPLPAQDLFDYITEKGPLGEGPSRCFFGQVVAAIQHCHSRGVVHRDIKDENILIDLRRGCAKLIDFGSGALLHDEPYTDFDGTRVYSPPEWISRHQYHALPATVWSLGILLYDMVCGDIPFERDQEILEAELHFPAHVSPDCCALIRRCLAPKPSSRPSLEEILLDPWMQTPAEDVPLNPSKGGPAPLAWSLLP

[33] = target: CSNK1D (human) (UniProt P48730)
[34] = target: MAPK14 (human) (UniProt Q16539)
MAPK14 (human), sequence (Q16539 whole entry, looked up): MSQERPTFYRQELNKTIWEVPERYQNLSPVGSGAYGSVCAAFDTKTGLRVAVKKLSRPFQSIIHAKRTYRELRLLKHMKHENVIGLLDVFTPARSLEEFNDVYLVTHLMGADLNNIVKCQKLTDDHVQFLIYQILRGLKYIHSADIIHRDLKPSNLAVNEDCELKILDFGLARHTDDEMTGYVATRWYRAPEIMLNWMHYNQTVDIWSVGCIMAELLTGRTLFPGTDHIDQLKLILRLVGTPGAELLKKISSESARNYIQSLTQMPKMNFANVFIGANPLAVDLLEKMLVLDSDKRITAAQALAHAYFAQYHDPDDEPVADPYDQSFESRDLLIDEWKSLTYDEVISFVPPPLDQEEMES

[35] = target: RPS6KA5 KD1 KD2 (human) (UniProt O75582)
RPS6KA5 KD1 KD2 (human), sequence (O75582 whole entry, looked up): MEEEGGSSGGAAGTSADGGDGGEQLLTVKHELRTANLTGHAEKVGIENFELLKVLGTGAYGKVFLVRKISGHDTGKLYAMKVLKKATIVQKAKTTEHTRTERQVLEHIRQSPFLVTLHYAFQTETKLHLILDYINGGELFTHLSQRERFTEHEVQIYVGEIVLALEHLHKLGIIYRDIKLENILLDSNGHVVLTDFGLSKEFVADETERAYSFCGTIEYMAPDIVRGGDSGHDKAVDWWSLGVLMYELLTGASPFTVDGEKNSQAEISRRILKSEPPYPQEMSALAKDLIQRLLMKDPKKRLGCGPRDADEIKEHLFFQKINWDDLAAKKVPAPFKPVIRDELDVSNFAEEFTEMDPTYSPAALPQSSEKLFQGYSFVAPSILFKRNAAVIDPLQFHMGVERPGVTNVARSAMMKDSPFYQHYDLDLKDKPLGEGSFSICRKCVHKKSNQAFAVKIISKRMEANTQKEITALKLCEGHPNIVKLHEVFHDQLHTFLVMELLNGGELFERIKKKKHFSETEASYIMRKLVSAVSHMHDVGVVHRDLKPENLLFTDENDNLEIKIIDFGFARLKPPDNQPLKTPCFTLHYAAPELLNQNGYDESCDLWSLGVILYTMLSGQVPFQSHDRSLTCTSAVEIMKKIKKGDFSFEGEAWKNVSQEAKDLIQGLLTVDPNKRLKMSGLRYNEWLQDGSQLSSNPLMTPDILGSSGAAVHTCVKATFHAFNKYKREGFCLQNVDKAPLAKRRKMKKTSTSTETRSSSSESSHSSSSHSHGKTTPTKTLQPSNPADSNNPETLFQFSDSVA

## FC(F)(F)c1ccc(-c2ccc(Oc3cncc4sc(-c5nn[nH]n5)cc34)cc2)cc1
[1]; compound 1.0 µM
  residual activity: 67%
[1]; compound 10.0 µM
  residual activity: 27%
[2]; compound 1.0 µM
  residual activity: 106%
[2]; compound 10.0 µM
  residual activity: 98%
[3]; compound 1.0 µM
  residual activity: 79%
[3]; compound 10.0 µM
  residual activity: 47%
[4]; compound 1.0 µM
  residual activity: 34%
[4]; compound 10.0 µM
  residual activity: 4%
[5]; compound 1.0 µM
  residual activity: 96%
[5]; compound 10.0 µM
  residual activity: 29%
[6]; compound 1.0 µM
  residual activity: 114%
[6]; compound 10.0 µM
  residual activity: 102%
[7]; compound 1.0 µM
  residual activity: 93%
[7]; compound 10.0 µM
  residual activity: 83%
[8]; compound 1.0 µM
  residual activity: 100%
[8]; compound 10.0 µM
  residual activity: 95%
[9]; compound 1.0 µM
  residual activity: 114%
[9]; compound 10.0 µM
  residual activity: 95%
[10]; compound 1.0 µM
  residual activity: 105%
[10]; compound 10.0 µM
  residual activity: 64%
[11]; compound 1.0 µM
  residual activity: 109%
[11]; compound 10.0 µM
  residual activity: 60%
[12]; compound 1.0 µM
  residual activity: 83%
[12]; compound 10.0 µM
  residual activity: 63%
[13]; compound 1.0 µM
  residual activity: 83%
[13]; compound 10.0 µM
  residual activity: 30%
[14]; compound 1.0 µM
  residual activity: 108%
[14]; compound 10.0 µM
  residual activity: 100%
[15]; compound 1.0 µM
  residual activity: 109%
[15]; compound 10.0 µM
  residual activity: 110%
[16]; compound 1.0 µM
  residual activity: 87%
[16]; compound 10.0 µM
  residual activity: 31%
[17]; compound 1.0 µM
  residual activity: 132%
[17]; compound 10.0 µM
  residual activity: 88%
[18]; compound 1.0 µM
  residual activity: 102%
[18]; compound 10.0 µM
  residual activity: 37%
[19]; compound 1.0 µM
  residual activity: 108%
[19]; compound 10.0 µM
  residual activity: 113%
[20]; compound 1.0 µM
  residual activity: 103%
[20]; compound 10.0 µM
  residual activity: 94%
[21]; compound 1.0 µM
  residual activity: 83%
[21]; compound 10.0 µM
  residual activity: 16%
[22]; compound 1.0 µM
  residual activity: 109%
[22]; compound 10.0 µM
  residual activity: 106%
[23]; compound 1.0 µM
  residual activity: 98%
[23]; compound 10.0 µM
  residual activity: 50%
[24]; compound 1.0 µM
  residual activity: 98%
[24]; compound 10.0 µM
  residual activity: 84%
[25]; compound 1.0 µM
  residual activity: 101%
[25]; compound 10.0 µM
  residual activity: 89%
[26]; compound 1.0 µM
  residual activity: 122%
[26]; compound 10.0 µM
  residual activity: 57%
[27]; compound 1.0 µM
  residual activity: 89%
[27]; compound 10.0 µM
  residual activity: 56%
[28]; compound 1.0 µM
  residual activity: 108%
[28]; compound 10.0 µM
  residual activity: 95%
[29]; compound 1.0 µM
  residual activity: 109%
[29]; compound 10.0 µM
  residual activity: 95%
[30]; compound 1.0 µM
  residual activity: 81%
[30]; compound 10.0 µM
  residual activity: 51%
[31]; compound 1.0 µM
  residual activity: 101%
[31]; compound 10.0 µM
  residual activity: 82%
[32]; compound 1.0 µM
  residual activity: 87%
[32]; compound 10.0 µM
  residual activity: 36%
[33]; compound 1.0 µM
  residual activity: 86%
[33]; compound 10.0 µM
  residual activity: 41%
[34]; compound 1.0 µM
  residual activity: 102%
[34]; compound 10.0 µM
  residual activity: 107%
[35]; compound 1.0 µM
  residual activity: 90%
[35]; compound 10.0 µM
  residual activity: 22%

## NC(=O)c1c(NC(=O)C2CC2)sc2c1CCCC2
[1]; compound 1.0 µM
  residual activity: 97%
[1]; compound 10.0 µM
  residual activity: 52%
[2]; compound 1.0 µM
  residual activity: 100%
[2]; compound 10.0 µM
  residual activity: 96%
[3]; compound 1.0 µM
  residual activity: 89%
[3]; compound 10.0 µM
  residual activity: 48%
[4]; compound 1.0 µM
  residual activity: 106%
[4]; compound 10.0 µM
  residual activity: 67%
[5]; compound 1.0 µM
  residual activity: 45%
[5]; compound 10.0 µM
  residual activity: 9%
[6]; compound 1.0 µM
  residual activity: 102%
[6]; compound 10.0 µM
  residual activity: 106%
[7]; compound 1.0 µM
  residual activity: 107%
[7]; compound 10.0 µM
  residual activity: 93%
[8]; compound 1.0 µM
  residual activity: 96%
[8]; compound 10.0 µM
  residual activity: 88%
[9]; compound 1.0 µM
  residual activity: 99%
[9]; compound 10.0 µM
  residual activity: 89%
[10]; compound 1.0 µM
  residual activity: 106%
[10]; compound 10.0 µM
  residual activity: 115%
[11]; compound 10.0 µM
  residual activity: 109%
[12]; compound 1.0 µM
  residual activity: 100%
[12]; compound 10.0 µM
  residual activity: 80%
[13]; compound 1.0 µM
  residual activity: 86%
[13]; compound 10.0 µM
  residual activity: 36%
[14]; compound 1.0 µM
  residual activity: 117%
[15]; compound 1.0 µM
  residual activity: 101%
[15]; compound 10.0 µM
  residual activity: 55%
[16]; compound 1.0 µM
  residual activity: 92%
[16]; compound 10.0 µM
  residual activity: 88%
[17]; compound 1.0 µM
  residual activity: 107%
[17]; compound 10.0 µM
  residual activity: 89%
[18]; compound 1.0 µM
  residual activity: 74%
[18]; compound 10.0 µM
  residual activity: 35%
[19]; compound 1.0 µM
  residual activity: 99%
[19]; compound 10.0 µM
  residual activity: 92%
[20]; compound 1.0 µM
  residual activity: 100%
[20]; compound 10.0 µM
  residual activity: 54%
[21]; compound 1.0 µM
  residual activity: 98%
[21]; compound 10.0 µM
  residual activity: 100%
[22]; compound 1.0 µM
  residual activity: 114%
[22]; compound 10.0 µM
  residual activity: 53%
[23]; compound 1.0 µM
  residual activity: 100%
[23]; compound 10.0 µM
  residual activity: 98%
[24]; compound 1.0 µM
  residual activity: 90%
[24]; compound 10.0 µM
  residual activity: 68%
[25]; compound 1.0 µM
  residual activity: 100%
[25]; compound 10.0 µM
  residual activity: 102%
[26]; compound 1.0 µM
  residual activity: 101%
[26]; compound 10.0 µM
  residual activity: 95%
[27]; compound 1.0 µM
  residual activity: 100%
[27]; compound 10.0 µM
  residual activity: 93%
[28]; compound 1.0 µM
  residual activity: 102%
[28]; compound 10.0 µM
  residual activity: 87%
[29]; compound 1.0 µM
  residual activity: 100%
[29]; compound 10.0 µM
  residual activity: 93%
[30]; compound 1.0 µM
  residual activity: 103%
[30]; compound 10.0 µM
  residual activity: 86%
[31]; compound 1.0 µM
  residual activity: 107%
[31]; compound 10.0 µM
  residual activity: 125%
[32]; compound 1.0 µM
  residual activity: 98%
[32]; compound 10.0 µM
  residual activity: 92%
[33]; compound 1.0 µM
  residual activity: 96%
[33]; compound 10.0 µM
  residual activity: 81%
[34]; compound 1.0 µM
  residual activity: 100%
[34]; compound 10.0 µM
  residual activity: 101%
[35]; compound 1.0 µM
  residual activity: 108%
[35]; compound 10.0 µM
  residual activity: 108%
